Source: patent US11773086B2, “Fungal modulators” (TRUSTEES OF BOSTON UNIVERSITY, priority 2020, dated 2023)

Columns and labels:
C. auris = assay: Intracellular fluconazole and azoffluxin detection by LC-MS; type: cell-based, Candida auris; conditions: combination treatment vs high fluconazole alone, 1 hour
Source text: FIGS. 3A-3B, and 4A-4B illustrate azoffluxin increases fluconazole (FLC) bioavailability by inhibiting Cdr1-mediated efflux in C. auris, as described above. FIG. 3A depicts the relative abundance of specific sterols determined in C. auris after an 18-hour treatment with the respective compounds (⋅ indicates combo treatment concentrations) using LC-MS. Values are plotted relative to the internal standard of cholesterol and error bars indicate standard deviation between technical triplicates. Significance was determined by an unpaired student t-test of each condition to untreated, (*) indicates a p-value<0.05 and (**) indicates a p-value<0.01. FIG. 3B depicts the intracellular concentrations of FLC and azoffluxin measured after treatment for 1 hour (conditions as in FIG. 3A) Error bars indicate standard deviation between technical triplicates. Significance was determined by an unpaired student t-test, (**) indicates a p-value<0.01. FIG. 4A depicts the quantified relative expression of a panel of putative efflux pumps in C. auris Ci6684. Expression of CDR1 (B9J08_000164), MDR1 (B9J08_003981), CDR4-1 (B9J08_000479), CDR4-2 (B9J08_002451), SNQ2-1 (B9J08_001125), and SNQ2-2 (B9J08_004452) was measured by RT-qPCR. […] FIG. 4B depicts expression of CDR1 (B9J08_000164) and CDR4-1 (B9J08_000479) measured by quantitative real-time PCR (RT-qPCR). […]

MRP1 (ABCC1) = target: T1, MRP1 (ABCC1) (Homo sapiens, UniProt P33527); assay: Calcein AM accumulation in MRP1-overexpressing HEK293 cells (flow cytometry); type: cell-based, mammalian; conditions: Calcein AM 2.5 μg/mL
T1 construct: expressed in transfected cells; host or cells: HEK293
T1 sequence (P33527 whole entry): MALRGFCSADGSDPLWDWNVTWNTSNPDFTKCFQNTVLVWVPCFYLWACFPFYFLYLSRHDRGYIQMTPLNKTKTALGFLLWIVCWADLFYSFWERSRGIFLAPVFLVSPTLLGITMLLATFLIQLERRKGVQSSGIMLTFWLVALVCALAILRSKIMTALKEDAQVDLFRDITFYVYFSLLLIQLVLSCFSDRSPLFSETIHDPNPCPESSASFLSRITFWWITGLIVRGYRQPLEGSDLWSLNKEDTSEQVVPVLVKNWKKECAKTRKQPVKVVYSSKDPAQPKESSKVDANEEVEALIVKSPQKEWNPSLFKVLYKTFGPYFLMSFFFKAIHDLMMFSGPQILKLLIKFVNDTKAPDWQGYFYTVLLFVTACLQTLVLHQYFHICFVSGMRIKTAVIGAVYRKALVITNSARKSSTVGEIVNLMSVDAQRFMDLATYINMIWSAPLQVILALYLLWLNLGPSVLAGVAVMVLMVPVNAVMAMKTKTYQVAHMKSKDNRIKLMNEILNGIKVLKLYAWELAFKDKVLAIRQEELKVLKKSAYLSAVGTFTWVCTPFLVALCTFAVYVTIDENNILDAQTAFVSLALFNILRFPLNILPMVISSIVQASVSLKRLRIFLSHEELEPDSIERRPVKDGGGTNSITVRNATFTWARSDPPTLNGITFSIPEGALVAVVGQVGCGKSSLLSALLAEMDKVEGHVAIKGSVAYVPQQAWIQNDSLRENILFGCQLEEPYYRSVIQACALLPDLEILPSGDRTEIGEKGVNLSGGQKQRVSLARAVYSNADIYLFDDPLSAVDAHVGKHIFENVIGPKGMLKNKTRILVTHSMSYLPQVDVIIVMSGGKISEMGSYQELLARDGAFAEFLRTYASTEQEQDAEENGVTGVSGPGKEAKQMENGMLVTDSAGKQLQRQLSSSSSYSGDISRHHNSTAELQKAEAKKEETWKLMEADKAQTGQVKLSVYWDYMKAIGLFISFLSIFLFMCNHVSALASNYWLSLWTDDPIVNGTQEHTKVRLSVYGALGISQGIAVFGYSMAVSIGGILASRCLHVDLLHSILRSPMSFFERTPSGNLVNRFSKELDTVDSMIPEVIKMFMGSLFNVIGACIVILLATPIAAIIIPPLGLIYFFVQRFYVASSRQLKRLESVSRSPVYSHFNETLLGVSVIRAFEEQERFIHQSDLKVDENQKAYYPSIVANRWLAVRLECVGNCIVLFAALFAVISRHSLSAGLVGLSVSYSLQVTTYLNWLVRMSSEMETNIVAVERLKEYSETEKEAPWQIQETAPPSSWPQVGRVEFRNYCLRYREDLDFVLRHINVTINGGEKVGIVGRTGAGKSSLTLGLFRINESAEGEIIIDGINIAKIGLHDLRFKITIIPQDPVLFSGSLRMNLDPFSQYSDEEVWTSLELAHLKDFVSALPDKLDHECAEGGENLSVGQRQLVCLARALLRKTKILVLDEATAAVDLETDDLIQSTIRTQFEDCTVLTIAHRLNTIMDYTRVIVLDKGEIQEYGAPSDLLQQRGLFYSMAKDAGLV
Protocol: P-gp overexpressing HEK293 cell lines were used to determine if azoffluxin treatment leads to a greater accumulation of fluorescent substrates (MFI) as determined by flow cytometry.
MDR1 (ABCB1) and MRP1 (ABCC1) was assessed using the fluorescent dyes rhodamine 6G (0.5 μg/mL) and Calcein AM (2.5 μg/mL), for each pump respectively, and the known inhibitor controls tariquidar (60 nM) and MK571 (30 μM) for each pump respectively. Listed data is shown by FIG. 12E (R6G) and FIG. 12F (Cal).

[1] = tested on: HEK293 cancer cells that overexpress the efflux pump MDR1; assay: Doxorubicin cytotoxicity with azoffluxin; type: cell-based; conditions: dose response and single concentration
Source text: Dose response (FIG. 23A) and single concentration (FIG. 23B).

C. auris B11801 = assay: Kidney fungal burden (CFU) in infected mice; type: in vivo; conditions: azoffluxin 10 mg/Kg SC four-times daily + fluconazole 32 mg/Kg IP twice daily, four days
Protocol: FIG. 10A depicts mammalian embryonic kidney (293T) cells expressing luciferase used to quantify mammalian cell growth in co-culture. Mammalian cells were seeded in 384-well plates in DMEM medium at 5×10^5 cells/mL overnight. After 24 hours the indicated concentration of compound (⋅ indicates combo treatment concentrations) was added along with 2.5×10^3 cells/mL of C. auris. Co-cultures were incubated for 48 hours at 37° C. and then the luminescence was measured as an output of mammalian cell growth. […] FIG. 10C depicts checkerboard assays performed as described in FIG. 2B with C. auris Clade IV isolate B11801. Relative growth was measured after 24 hours using OD600 and normalized to no-drug control wells (see color bar). The FICI calculated for each checkerboard is shown in the top right of each plot, with values<0.5 indicating synergy. […] Input is the CFU recovered in an aliquot of the fungal suspension use to inoculate mice. […] Fluconazole was administered at 32 mg/Kg IP twice daily and azoffluxin at 10 mg/Kg SC four-times daily. Error bars; SD, n=3 mice/treatment group.

Q: Which “increase in intracellular fluconazole” value (C. auris) does the source give for `C=C(C)C[C@@H](O)COc1cc2c(cc1C1(c3cc4c(cc3OC[C@H](O)CC(=C)C)OCO4)C(=O)Nc3cc(F)ccc31)OCO2` [CMLD012336] here?
A: ~2.5 fold

Q: And the “increase in calcein AM (Cal)” value (MRP1 (ABCC1))?
A: 2.5 fold

Q: What about the cytotoxicity of doxorubicin [1] of the same compound?
A: enhances cytotoxicity of doxorubicin

Q: What about the “antifungal activity of fluconazole in mice (kidney CFU)” value (C. auris B11801) of the same compound?
A: markedly increases the antifungal activity of fluconazole
